# Biological target: SYK (Homo sapiens (Human), UniProt P43405)
# Experiment: Tm-Shift assay (thermal melting, SYPRO Orange);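 further: recombinant His-tagged protein made in Sf9 insect cells by baculovirus, in HEPES NaCl buffer, heated stepwise with fluorescence recorded at every temperature step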
# Assay type: binding
# Conditions: not given
row,Structure (SMILES),SYK Tm-Shift [°C]
1,"CC(C)(C)c1cc(Nc2nc(N3C[C@H](N)C[C@H](N)C3)ncc2C(N)=O)cc(C(C)(C)C)c1.Cl.Cl [Example 11, 4-((3,5-di-tert-butylphenyl)amino)-2-((3S,5R)-3,5-diaminopiperidin-1-yl)pyrimidine-5-carboxamide dihydrochloride]",−0.5
2,"C[C@@H]1COC[C@H](C)N1C(=O)c1cccc(Nc2nc(N3CCC[C@H](N)C3)ncc2C(N)=O)c1.Cl [Example 33, 2-((S)-3-aminopiperidin-1-yl)-4-((3-((3S,5R)-3,5-dimethylmorpholine-4-carbonyl)phenyl)amino)pyrimidine-5-carboxamide hydrochloride]",0.5
3,"COC[C@H]1CCCN1C(=O)c1cccc(Nc2nc(N3CCC[C@H](N)C3)ncc2C(N)=O)c1.Cl [Example 36, 2-((S)-3-aminopiperidin-1-yl)-4-((3-((R)-2-(methoxymethyl)pyrrolidine-1-carbonyl)phenyl)amino)pyrimidine-5-carboxamide hydrochloride]",1.4
4,"CC(C)(O)C1CN(C(=O)c2cccc(Nc3nc(N4CCC[C@H](N)C4)ncc3C(N)=O)c2)C1.Cl [Example 37, (S)-2-(3-aminopiperidin-1-yl)-4-((3-(3-(2-hydroxypropan-2-yl)azetidine-1-carbonyl)phenyl)amino)pyrimidine-5-carboxamide hydrochloride]",5.0
5,"CN1CCN(C(=O)c2cccc(Nc3nc(N4CCC[C@H](N)C4)ncc3C(N)=O)c2)CC1=O.Cl [Example 38, (S)-2-(3-aminopiperidin-1-yl)-4-((3-(4-methyl-3-oxopiperazine-1-carbonyl)phenyl)amino)pyrimidine-5-carboxamide hydrochloride]",3.4

# Same assay, conditions: compound 10 μM, protein 2 μM; ΔTm obs vs protein without ligand; triplicate
row,Structure (SMILES),SYK Tm-Shift [°C]
1,"CC(C)(C)c1cc(Nc2nc(N3CCC[C@H](N)C3)ncc2C(N)=O)ccn1 [Example 8, (S)-2-(3-aminopiperidin-1-yl)-4-((2-(tert-butyl)pyridin-4-yl)amino)pyrimidine-5-carboxamide]",3.2
2,"Cc1ccccc1-c1cccc(Nc2nc(N3CCC[C@H](N)C3)ncc2C(N)=O)c1 [Example 10, (S)-2-(3-aminopiperidin-1-yl)-4-((2′-methyl-[1,1′-biphenyl]-3-yl)amino)pyrimidine-5-carboxamide]",6.5
3,"Cc1cccc(C)c1-c1cc(Nc2nc(N3CCC[C@H](N)C3)ncc2C(N)=O)cc(C(=O)N2CCOCC2)c1 [Example 20, (S)-2-(3-aminopiperidin-1-yl)-4-((2′,6′-dimethyl-5-(morpholine-4-carbonyl)-[1,1′-biphenyl]-3-yl)amino)pyrimidine-5-carboxamide]",0.3
4,"NC(=O)c1cnc(N2CCC[C@H](N)C2)nc1Nc1cc(C(=O)N2CCOCC2)cc(-c2ccccc2)c1 [Example 21, (S)-2-(3-aminopiperidin-1-yl)-4-((5-(morpholine-4-carbonyl)-[1,1′-biphenyl]-3-yl)amino)pyrimidine-5-carboxamide]",0.3
5,"CN(C)C(=O)c1cccc(Nc2nc(N3CCC[C@H](N)C3)ncc2C(N)=O)c1 [Example 23, (S)-2-(3-aminopiperidin-1-yl)-4-((3-(dimethylcarbamoyl)phenyl)amino)pyrimidine-5-carboxamide]",1.6
6,"NC(=O)c1cnc(N2CCC[C@H](N)C2)nc1Nc1cccc(C(=O)N2CCOCC2)c1 [Example 24, (S)-2-(3-aminopiperidin-1-yl)-4-((3-(morpholine-4-carbonyl)phenyl)amino)pyrimidine-5-carboxamide]",1.4
7,"NC(=O)c1cnc(N2CCC[C@H](N)C2)nc1Nc1cccc(C(=O)N2CCCCC2)c1 [Example 26, (S)-2-(3-aminopiperidin-1-yl)-4-((3-(piperidine-1-carbonyl)phenyl)amino)pyrimidine-5-carboxamide]",1.8
8,"COc1ccc2c(c1)CN(C(=O)c1cccc(Nc3nc(N4CCC[C@H](N)C4)ncc3C(N)=O)c1)C2 [Example 35, (S)-2-(3-aminopiperidin-1-yl)-4-((3-(5-methoxyisoindoline-2-carbonyl)phenyl)amino)pyrimidine-5-carboxamide]",4.3
9,"C[C@@H]1CN(C(=O)c2cccc(Nc3nc(N4CCC[C@H](N)C4)ncc3C(N)=O)c2)C[C@H](C)O1 [Example 39, 2-((S)-3-aminopiperidin-1-yl)-4-((3-((2R,6S)-2,6-dimethylmorpholine-4-carbonyl)phenyl)amino)pyrimidine-5-carboxamide]",3.1
10,"NC(=O)c1cnc(N2CCC[C@H](N)C2)nc1Nc1cc(C(=O)N2CCOCC2)cc(C(F)(F)F)c1 [Example 43, (S)-2-(3-aminopiperidin-1-yl)-4-((3-(morpholine-4-carbonyl)-5-(trifluoromethyl)phenyl)amino)pyrimidine-5-carboxamide]",1.2
11,"CN(C)C(=O)c1cc(Nc2nc(N3CCC[C@H](N)C3)ncc2C(N)=O)cc(C(C)(C)C#N)c1 [Example 46, (S)-2-(3-aminopiperidin-1-yl)-4-((3-(2-cyanopropan-2-yl)-5-(dimethylcarbamoyl)phenyl)amino)pyrimidine-5-carboxamide]",0.5
12,"CC(C)(C#N)c1cc(Nc2nc(N3CCC[C@H](N)C3)ncc2C(N)=O)cc(C(=O)N2CCCC2)c1 [Example 47, (S)-2-(3-aminopiperidin-1-yl)-4-((3-(2-cyanopropan-2-yl)-5-(pyrrolidine-1-carbonyl)phenyl)amino)pyrimidine-5-carboxamide]",0.7
13,"CC(C)(C#N)c1cc(Nc2nc(N3CCC[C@H](N)C3)ncc2C(N)=O)cc(C(=O)N2CCOCC2)c1 [Example 48, (S)-2-(3-aminopiperidin-1-yl)-4-((3-(2-cyanopropane-2-yl)-5-(morpholine-4-carbonyl)phenyl)amino)pyrimidine-5-carboxamide]",0.5
14,"NC(=O)c1cnc(N2CCC[C@H](N)C2)nc1Nc1cc(C2CC2)cc(C2CC2)c1 [Example 53, (S)-2-(3-aminopiperidin-1-yl)-4-((3,5-dicyclopropylphenyl)amino)pyrimidine-5-carboxamide]",8.2
15,"CC1(C)C(=O)Nc2ccc(Nc3nc(N4CCC[C@H](N)C4)ncc3C(N)=O)cc21 [Example 65, (S)-2-(3-aminopiperidin-1-yl)-4-((3,3-dimethyl-2-oxoindolin-5-yl)amino)pyrimidine-5-carboxamide]",0.3
16,"CC(C)(O)c1cc(Nc2nc(N3CCC[C@H](N)C3)ncc2C(N)=O)cc(C(F)(F)F)c1 [Example 89, (S)-2-(3-aminopiperidin-1-yl)-4-((3-(2-hydroxypropan-2-yl)-5-(trifluoromethyl)phenyl)amino)pyrimidine-5-carboxamide]",3.4
17,"CC(C)(O)c1cc(Nc2nc(N3CCC[C@H](N)C3)ncc2C(N)=O)cc(C(C)(C)O)c1 [Example 90, (S)-2-(3-aminopiperidin-1-yl)-4-((3,5-bis(2-hydroxypropan-2-yl)phenyl)amino) pyrimidi-ne-5-carboxamide]",0.9

# Reference: patent US11530193B2, “Kinase inhibitors” (The University of Manchester, priority 2018, dated 2022)
